Values quoted from earlier work as cited in PubChem BioAssay AID1259410 (Chemical Carcinogenesis Research Information System (CCRIS), 2018).

Test system: rodent tumor promotion studies, tumor incidence
Assay: CCRIS tumor promotion studies

Structure (SMILES): CCC(=O)O[C@H]1CC[C@H]2[C@@H]3CCC4=CC(=O)CC[C@]4(C)[C@H]3CC[C@]12C
- outcome (Carcinogen: 3,2'-DIMETHYL-4-AMINOBIPHENYL, 13394-86-0, Doses [Carcinogen]: 50 MG/KG 1/2 WK FOR 20 WK, Doses [Promoter]: CONTINUOUS ADMINISTRATION TO CASTRATED RATS FOR 40 WK, IMPLANTS REPLACED AT 6-WK INTERVALS (STUDY DURATION: 60 WK), Route [Carcinogen]: SUBCUTANEOUS, Route [Promoter]: SUBCUTANEOUS IMPLANT, Species: RAT, Strain/Sex: F344/MALE): prostate: carcinoma; seminal vesicle: carcinoma
- outcome (Carcinogen: 3,2'-DIMETHYL-4-AMINOBIPHENYL, 13394-86-0, Doses [Carcinogen]: 50 MG/KG 1/2 WK FOR A TOTAL OF 10 INJECTIONS, Doses [Promoter]: 0, 40 MG IN SILASTIC TUBES IMPLANTED 1 WK PRIOR TO CARCINOGEN TREATMENT AND CONTINUING FOR DURATION OF STUDY WITH REPLAC, Route [Carcinogen]: SUBCUTANEOUS, Route [Promoter]: SUBCUTANEOUS IMPLANT, Species: RAT, Strain/Sex: F344/MALE): dorsolateral prostate: carcinoma; seminal vesicle: carcinoma
- outcome (Carcinogen: 3,2'-DIMETHYL-4-AMINOBIPHENYL, 13394-86-0, Doses [Carcinogen]: 50 MG/KG 1/2 WK FOR A TOTAL OF 10 INJECTIONS, Doses [Promoter]: 0, 100 MG/KG 1/D FOR 3 D PRECEDING EACH CARCINOGEN DOSE (STUDY DURATION: 56 WK), Route [Carcinogen]: SUBCUTANEOUS, Route [Promoter]: SUBCUTANEOUS, Species: RAT, Strain/Sex: F344/MALE): skin/subcutis: tumor
- outcome (Carcinogen: 3,2'-DIMETHYL-4-AMINOBIPHENYL, 13394-86-0, Doses [Carcinogen]: 50 MG/KG 1/2 WK FOR A TOTAL OF 10 INJECTIONS, Doses [Promoter]: 0, 100 MG/KG 1/D FOR 3 D PRECEDING EACH CARCINOGEN DOSE THEN 0, 40 MG IN SILASTIC TUBES IMPLANTED POST LAST CARCINOGEN D, Doses [Promoter]: 0, 100 MG/KG 1/D FOR 3 D PRECEDING EACH CARCINOGEN DOSE THEN 0, 40 MG IN SILASTIC TUBES IMPLANTED POST LAST CARCINOGEN D, Route [Carcinogen]: SUBCUTANEOUS, Route [Promoter]: SUBCUTANEOUS, Species: RAT, Strain/Sex: F344/MALE): dorsolateral prostate: carcinoma; seminal vesicles: carcinoma
- outcome (Carcinogen: 3,2'-DIMETHYL-4-AMINOBIPHENYL, 13394-86-0, Doses [Carcinogen]: 50 MG/KG BW 1/2 WK FOR 10 DOSES, Doses [Promoter]: 20, 40 MG/SILASTIC TUBE IMPLANT REPLACED AT 6 WK INTERVALS (STUDY DURATION: 60 WK), Route [Carcinogen]: SUBCUTANEOUS, Route [Promoter]: SUBCUTANEOUS, Species: RAT, Strain/Sex: F344/MALE): prostate (anterior): carcinoma; seminal vesicles: carcinoma
- outcome (Carcinogen: 3,2'-DIMETHYL-4-AMINOBIPHENYL, 58109-32-3, Doses [Carcinogen]: 50 MG/KG BW 1/2 WK FOR 20 WK, Doses [Promoter]: 0, 40 MG BEGINNING POST CARCINOGEN TREATMENT AND RENEWED AT 6 WK INTERVALS FOR 40 WK (STUDY DURATION: 60 WK), Route [Carcinogen]: SUBCUTANEOUS, Route [Promoter]: SUBCUTANEOUS IMPLANT, Species: RAT, Strain/Sex: F344/MALE): seminal vesicles: carcinoma
- outcome (Carcinogen: 17 BETA-ESTRADIOL [50-28-2], Doses [Carcinogen]: 22 MG AT 3 MO OF AGE ONCE/3 MO FOR 1 YR, Doses [Promoter]: 0, 60 MG AT 3 MO OF AGE ONCE/3 MO FOR 1 YR (STUDY DURATION: 1 YR), Route [Carcinogen]: SUBCUTANEOUS IMPLANT, Route [Promoter]: SUBCUTANEOUS IMPLANT, Species: RAT, Strain/Sex: NOBLE/FEMALE (?,18)/(?/15)): mammary gland: tumor
- outcome (Carcinogen: 17 BETA-ESTRADIOL, 50-28-2, Doses [Carcinogen]: 22 MG AT 3 MO OF AGE ONCE EVERY 3 MO FOR 1 YR, Doses [Promoter]: 0, 120 MG AT 3 MO OF AGE, 1/3 MO FOR 1 YR (STUDY DURATION: 1 YR), Route [Carcinogen]: SUBCUTANEOUS IMPLANT, Route [Promoter]: SUBCUTANEOUS IMPLANT, Species: RAT, Strain/Sex: NOBLE/FEMALE): mammary gland: tumor
- outcome (Carcinogen: N-BUTYL-N-(4-HYDROXYBUTYL)NITROSAMINE [3817-11-6], Doses [Carcinogen]: 0.05% IN DRINKING WATER FOR 18 WK (STUDY DURATION: 18 WK), Doses [Promoter]: 0, 3 MG/KG BW FOR 18 WK (STUDY DURATION: 18 WK), Route [Carcinogen]: ORAL, Route [Promoter]: INTRAMUSCULAR, Species: MOUSE, Strain/Sex: C57B6/6/MALE): urinary bladder: tumor
- outcome (Carcinogen: N-METHYL-N-NITROSOUREA, 684-93-5, Doses [Carcinogen]: 30 MG/KG BW ONCE, Doses [Promoter]: 0, 25 MG IMPLANT CHANGED AT 2 MO INTERVALS FOR A TOTAL OF 3 TIMES (STUDY DURATION: 14 MO), Route [Carcinogen]: INTRAVENOUS, Route [Promoter]: SUBCUTANEOUS IMPLANT, Species: RAT, Strain/Sex: LOBUND-WISTAR/MALE): prostate/seminal vesicles: tumor
- outcome (Carcinogen: N-METHYL-N-NITROSOUREA, 684-93-5, Doses [Carcinogen]: 30 MG/KG ONCE, Doses [Promoter]: 0, 50 MG IN SILASTIC MEMBRANE IMPLANT BEGINNING 1 MO POST CARCINOGEN DOSE AND REPEATED AT INTERVALS OF 2 MO FOR A TOTAL, Route [Carcinogen]: INTRAVENOUS, Route [Promoter]: SUBCUTANEOUS IMPLANT, Species: RAT, Strain/Sex: LOBUND-WISTAR/MALE): prostate: adenocarcinoma
- outcome (Carcinogen: N-METHYL-N-NITROSOUREA, 684-93-5, Doses [Carcinogen]: 30 MG/KG ONCE, Doses [Promoter]: 0, 50 MG IN SILASTIC MEMBRANE IMPLANT BEGINNING 1 WK POST CARCINOGEN DOSE AND REPEATED AT INTERVALS OF 2 MO FOR A TOTAL, Route [Carcinogen]: INTRAVENOUS, Route [Promoter]: SUBCUTANEOUS IMPLANT, Species: RAT, Strain/Sex: LOBUND-WISTAR/MALE): prostate: adenocarcinoma
- outcome (Carcinogen: N-METHYL-N-NITROSOUREA, 684-93-5, Doses [Carcinogen]: 30 MG/KG ONCE, Doses [Promoter]: 0, 50 MG IN SILASTIC MEMBRANE IMPLANT BEGINNING 1 WK POST CARCINOGEN DOSE FOLLOWED BY SECOND IMPLANT 2 MO LATER (STUDY D, Route [Carcinogen]: INTRAVENOUS, Route [Promoter]: SUBCUTANEOUS IMPLANT, Species: RAT, Strain/Sex: LOBUND-WISTAR/MALE): prostate: adenocarcinoma
- outcome (Carcinogen: N-METHYL-N-NITROSOUREA, 684-93-5, Doses [Carcinogen]: 30 MG/KG ONCE, Doses [Promoter]: 0, 50 MG IN SILASTIC MEMBRANE IMPLANT BEGINNING 2 MO POST CARCINOGEN DOSE AND REPEATED AT INTERVALS OF 2 MO FOR A TOTAL, Route [Carcinogen]: INTRAVENOUS, Route [Promoter]: SUBCUTANEOUS IMPLANT, Species: RAT, Strain/Sex: LOBUND-WISTAR/MALE): prostate: adenocarcinoma
- outcome (Carcinogen: N-METHYLNITROSOUREA, 684-93-5, Doses [Carcinogen]: 15 MG/KG/BW 1/4 WK FOR 5 INJECTIONS EACH FOLLOWING 2 WK PRETREATMENT WITH DIETARY ETHINYL ESTRADIOL, Doses [Promoter]: 0, 40 MG IMPLANTS REPLACED AT 6 WK INTERVALS FOR 40 WK IN RATS MAINTAINED ON DIETS WITH OR WITHOUT HIGH FAT CONTENT (20%, Route [Carcinogen]: INTRAVENOUS, Route [Promoter]: SUBCUTANEOUS IMPLANT, Species: RAT, Strain/Sex: F344/MALE): seminal vesicles: carcinoma; congulating glands: carcinoma
- outcome (Carcinogen: N-NITROSOBIS(2-OXOPROPYL)AMINE, 60599-38-4, Doses [Carcinogen]: 20 MG/KG 1/4 WK FOR 5 INJECTIONS EACH FOLLOWING 2 WK PRETREATMENT WITH DIETARY ETHINYL ESTRADIOL, Doses [Promoter]: 0, 40 MG IMPLANTS REPLACED AT 6 WK INTERVALS FOR 40 WK IN RATS MAINTAINED ON DIETS WITH OR WITHOUT HIGH FAT CONTENT (20%, Route [Carcinogen]: SUBCUTANEOUS, Route [Promoter]: SUBCUTANEOUS IMPLANT, Species: RAT, Strain/Sex: F344/MALE): seminal vesicles: carcinoma

Structure (SMILES): [O-][Br+2]([O-])O
- outcome (Carcinogen: 7,12-Dimethylbenz[a]anthracene, 57-97-6, Doses [Carcinogen]: 20 nmole as a single topical application, Doses [Promoter]: 0, 40 mg/ml on skin for 51 wk (study duration: 51 wk), Route [Carcinogen]: Dermal, Route [Promoter]: Dermal, Species: Mouse, Strain/Sex: Sencar/Female (20/group)): skin: negative as both a complete carcinogen and as a promoter
- outcome (Carcinogen: N-ETHYL-N-HYDROXYETHYLNITROSAMINE, 13147-25-6, Doses [Carcinogen]: 500 PPM IN DRINKING WATER FOR 2 WK, Doses [Promoter]: 0, 500 PPM IN DRINKING WATER BEGINNING POST CARCINOGEN TREATMENT AND CONTINUING FOR 24 WK (STUDY DURATION: 26 WK), Route [Carcinogen]: ORAL, Route [Promoter]: ORAL, Species: RAT, Strain/Sex: F344/MALE): kidney: tumors
- outcome (Carcinogen: N-Ethyl-N-hydroxyethylnitrosamine, 13147-25-6, Doses [Carcinogen]: 0.05% in drinking water for 2 wk, Doses [Promoter]: 0, 500 ppm in drinking water beginning post carcinogen treatment and continuing for 30 wk (study duration: 32 wk), Route [Carcinogen]: Oral, Route [Promoter]: Oral, Species: Rat, Strain/Sex: F344/Female (15/group)): kidney: renal cell tumors
- outcome (Carcinogen: N-Ethyl-N-hydroxyethylnitrosamine, 13147-25-6, Doses [Carcinogen]: 500 ppm in drinking water for 2 wk, Doses [Promoter]: 0, 15, 30, 60, 125, 250, 500 ppm in drinking water beginning post carcinogen treatment and continuing for 24 wk (study d, Doses [Promoter]: 0, 15, 30, 60, 125, 250, 500 ppm in drinking water beginning post carcinogen treatment and continuing for 24 wk (study d, Route [Carcinogen]: Oral, Route [Promoter]: Oral, Species: Rat, Strain/Sex: F344/Male (15/group)): kidney: renal cell tumors

Structure (SMILES): CC(C)CCC[C@@H](C)[C@H]1CC[C@H]2[C@@H]3CC=C4C[C@@H](O)CC[C@]4(C)[C@H]3CC[C@]12C
- outcome (Carcinogen: N-NITROSOBIS(2-OXOPROPYL)AMINE, 60599-38-4, Doses [Carcinogen]: 70 MG/KG ONCE, Doses [Promoter]: 0, 0.5% IN DIET BEGINNING 2 WK POST CARCINOGEN DOSE AND CONTINUING FOR 16 WK (STUDY DURATION: 18 WK), Route [Carcinogen]: SUBCUTANEOUS, Route [Promoter]: ORAL, Species: HAMSTER, Strain/Sex: SYRIAN/FEMALE): pancreas: adenocarcinoma
